Measurements from US20230263897A1, “CONJUGATE OF GALNAC AND SAPONIN, […] COMPOSITION COMPRISING SAID CONJUGATE AND A GALNAC-OLIGO[…]” (SAPREME TECHNOLOGIES B.V., priority 2020, published 2023).
[BNANC] = BNA^NC bridged nucleic acid sugar; {ThiolC6} = Thiol C6 linker; d = 2'-deoxy (DNA)

What was measured:
ApoB RNA [1] = experiment: ApoB RNA expression analysis in mouse primary hepatocytes; type: cell-based; conditions: alone
Description: Cryopreserved primary mouse hepatocytes ([…] Cell Culture Technology GmbH, Germany) were thawed in hepatocyte thawing media (HTM, […] Cell Culture Technology GmbH, Germany) and washed 1× with hepatocyte wash media (HWM, […] Cell Culture Technology GmbH, Germany). Cells were re-suspended in hepatocyte plating media (HPM Cryo, […] Cell Culture Technology GmbH, Germany) at a density of approx. 0.275×10^6 cells/ml.
RNA from cells was isolated using TRI Reagent® Solution (Thermo Scientific) according to the manufacturer's instruction. Conversion into cDNA was performed using iScript™ cDNA Synthesis Kit (BioRad) using standard protocols. ApoB expression levels and levels of specific hepatocyte housekeeping genes were determined using quantitative real-time PCR assays (qRT-PCR) using iTaq™ Universal SYBR® Green Supermix (BioRad) and the Light Cycler 480 (Roche Diagnostics, Rotkreuz, Switzerland) with specific DNA primers, listed in Table A4. Analysis was done by the ΔCt method to determine ApoB expression relative to 2 hepatocyte-specific housekeeping control mRNAs. Each analysis reaction was performed in triplicate.

ApoB RNA [2] = experiment: ApoB RNA expression analysis in liver tissue of C57BL/6J mice; type: in vivo
Procedure: (§1) • Dose administration and in-life phase. Per group, 8 C57BL/6J male mice for treatment groups and 14 in vehicle control group, approximately 6-7 weeks at arrival and 8-9 weeks at dosing, were dosed. The compounds, formulated in PBS or PBS alone (vehicle) according to Table A5, were dosed at 5 ml/kg in the tail vain (intravenously, iv), with dose volumes corresponding to the individual bodyweights. Where applicable, trivalent GalNAc-SO1861-EMCH was co-administered at 5 ml/kg in the tail vain (iv) right after the trivalent GalNAc-ApoB conjugate. Animals were weighed weekly and clinical observations were performed 2-3 times daily within the first 48 hrs, and at least once daily thereafter until study end. • Sampling of serum, liver, and kidney tissue. […] One half of the liver and one kidney was frozen and used for tissue RNA analysis.
The mRNA was isolated from frozen liver tissue using TRzol® Reagent (Thermo Scientific) according to the manufacturer's instruction. Conversion into cDNA was performed using Script™ cDNA Synthesis Kit (BioRad). ApoB expression levels and levels of specific liver housekeeping genes were determined using quantitative real-time PCR assays (qRT-PCR) using iTaq™ Universal SYBR® Green Supermix (BioRad) and the Light Cycler 480 (Roche Diagnostics, Rotkreuz, Switzerland) with specific DNA primers, listed in Table A5. Analysis was done by the ΔCt method to determine ApoB expression relative to 2 liver-specific housekeeping control mRNAs. Each analysis reaction was performed in triplicate.

LDL-cholesterol = experiment: Serum LDL-cholesterol analysis in C57BL/6J mice; type: in vivo
Procedure: as §1
LDL-cholesterol was measured in mouse serum, using an LDL-cholesterol specific two-step AU480 assay kit, respectively, from Beckman Coulter, with a photometric measurement according to the manufacturer's instructions.

[3] = In vivo tolerability (clinical observations, body weight) in C57BL/6J mice; conditions: doses and dose regimen of Table A5, iv, up to 336 hrs
Procedure: During the study period, ALT levels for vehicle mice ranged from an average 47 to 61 U/L per group (n=6 animals for vehicle).
as §1

## ApoB #02: murine and human sequence-compatible ApoB BNA(NC) antisense oligo 5′-GCattggtatTCA-3′ [SEQ ID NO: 12] (antisense GCATTGGTATTCA; sugars from the 5' end [BNANC]2 d8 [BNANC]3, all phosphorothioate, 5' {ThiolC6}, methylation of C not given here)
ApoB RNA [1]; 72 hrs, read-out: IC50 ApoB RNA down-modulation
  IC50: 20 nM
ApoB RNA [1]
  fold less potent in ApoB RNA down-modulation than (GalNAc)3-ApoB #02 combined with SO1861-EMCH or (GalNAc)3-SO1861: 100-667 fold
ApoB RNA [2]; 0.1 mg/kg iv alone, 24 hrs
  reduction of liver ApoB RNA levels compared to vehicle: not noticeably reduced
ApoB RNA [2]; 1 mg/kg iv alone, 24 hrs
  reduction of liver ApoB RNA levels compared to vehicle: ~15%
ApoB RNA [2]; 2 mg/kg iv alone, 24 hrs
  reduction of liver ApoB RNA levels compared to vehicle: ~21%
ApoB RNA [2]; 2 mg/kg iv alone, 72 hrs
  reduction of liver ApoB RNA levels compared to vehicle: 39%
ApoB RNA [2]; 2 mg/kg iv alone, 336 hrs
  reduction of liver ApoB RNA levels compared to vehicle: 30%
LDL-cholesterol; 0.1 mg/kg iv alone, 24 hrs
  reduction of serum LDL-C compared to vehicle: not noticeably reduced
LDL-cholesterol; 1 mg/kg iv alone, 24 hrs
  reduction of serum LDL-C compared to vehicle: not noticeably reduced
LDL-cholesterol; 2 mg/kg iv alone, 24 hrs
  reduction of serum LDL-C compared to vehicle: not noticeably reduced
LDL-cholesterol; 2 mg/kg iv alone, 72 hrs
  reduction of serum LDL-C compared to vehicle: 50%
LDL-cholesterol; 2 mg/kg iv alone, 336 hrs
  reduction of serum LDL-C: 40%
[3]
  tolerability (clinical observations, adverse findings): well tolerated
